From patent publication US20260209200A1, “SALTS OF A DIHYDROOROTATE DEHYDROGENASE (DHOD) INHIBITOR” (priority 2022, published 2026)
Values after ≈ are worked out from the molar mass of the structure shown.

How the values were obtained:
[1] = in vivo; settings: dog
Description: (§1) Suspensions were stirred continuously prior to dose.
A total of 6 male beagle dogs were used (n=3). 6 male dogs assigned to the study were divided into 2 periods with 6 dogs per period and two dosing cycles separated by a 7-day washout period. The diet was provided ad libitum throughout the in-life portion of the study, except for the fasting prior to dosing through 4 hours post dose. Drinking water was available daily ad libitum to all animals. Formulated PP-001 salts were administered to male beagle dogs by oral administration at 4 mg/kg with dosed volume at 2 mL/kg.
(§2) Plasma samples were collected via the jugular vein cannulation into EDTA-K3 tubes at 0.25, 0.5, 1, 2, 4, 8, and 24 hours post-dose administration. For analytical batch of single oral administration, plasma concentrations of salts of PP-001 were determined using LC-MS/MS with a lower limit of quantitation of 10 ng/mL.
(§3) The pharmacokinetic parameters of PP-001 salts were determined by non-compartmental analysis using WinNonlin Version 8.0 (Pharsight, Mountain View, CA). The area under the curve from the time of dosing to the last measurable concentration, AUC0-t, was calculated by the linear trapezoidal rule. The area under the concentration-time curve extrapolated to infinity, AUCinf, was calculated using a regression of the natural logarithm of the concentration values versus sampling time of the terminal slope (Lambda Z, k). This value is also used to calculate half-life (T1/2) as follows:
(§4) The bioavailability was calculated as follows:
(§5) [formula] • wherein PO is an oral administration and IV is an intravenous injection.

[2] = in vivo; settings: rat, in vivo, po
Description: as §1
A total of 27 male SD rats were used (n=3). 27 male SD rats assigned to the study were divided into 9 groups and a single type of formulated PP-001 salt was orally administered to each group of rats at dose level of 4 mg/kg (2 mL/kg dose volume). The diet was provided ad libitum throughout the in-life portion of the study, except for the fasting prior to dosing through 4 hours post dose. Drinking water was available daily ad libitum to all animals.
as §2, with “1” for “10”
as §3, §4, §5

[3] = Solubility of PP-001 free acid in supernatant of 10 mg/mL formulation in FaSSIF; format: physicochemical; settings: supernatant of 10 mg/mL formulation at 25° C. in FaSSIF after 120 min
[4] = Thermodynamic (equilibrium) solubility of PP-001 salts in FaSSIF; format: physicochemical; settings: 3 mL FaSSIF, 37° C.; for Thermodynamic solubility: saturated (target 10 mg/mL), time point 2 hrs, pH 6.4 to 6.5
Description: As the solid was completely dissolved, add more sample to keep it saturated. […] Then at the time point 2 hrs, 0.5 mL of sample solution was transferred into 1.5 mL centrifugation tube and centrifuged at 12,000 RPM for 10 min. The supernatant was diluted by 50% ACN suitable and analyzed by HPLC. The pH was tested after 24 hours.

[5] = Kinetic solubility of PP-001 salts in FaSSIF (HPLC); format: physicochemical; settings: 4 mL FaSSIF, 25° C., target 2 mg/mL
Description: Approximately 8 mg (calculated as freebase) of each salt was weighed out into each glass vial and then 4 ml of FaSSIF was added (target concentration was 2 mg/mL). The sample was kept stirring on a magnetic stirrer at a speed of I 00 RPM under 25° C. Then at the time points of initial, 0.5 hr, 1 hr, 2 hrs and 24 hrs, 0.5 mL of sample solution was transferred into 1.5 mL centrifugation tube and centrifuged at 12,000 RPM for 10 min. The supernatant was diluted by 50% ACN suitable and analyzed by HPLC.
An HPLC method of testing solubility was performed as follows in Table A: […]

Q: What does the source list for `O=C(Nc1c(F)c(F)c(-c2cccc(OC(F)(F)F)c2)c(F)c1F)c1ccsc1C(=O)O` [PP-001 free acid, 3-(2,3,5,6-tetrafluoro-3′-trifluoromethoxy-biphenyl-4-ylcarbamoyl)-thiophene-2-carboxylic acid]?
A: Increase in oral BA vs free acid in dogs ([1]; male, beagle): 1; bioavailability ([1]; male, beagle, po, 4 mg/kg): 23%; Increase in oral BA vs free acid in rats ([2]; male, SD): 1; bioavailability ([2]; male, SD, 4 mg/kg): 7.8%; solubility at 120 min [3]: 1200 µg/mL (≈ 2500 µM)

Q: With Tromethamine as the compound, how does the “Increase in oral BA vs free acid in dogs” value [1] read?
A: 2.4

Q: What about the “AUC0-∞” value ([1]; po, 4 mg/kg) of the same compound?
A: 106528 ng·h/mL

Q: And the AUCExtr ([1]; po, 4 mg/kg)?
A: 2.03%

Q: And the AUCinf/D ([1]; po, 4 mg/kg)?
A: 26632 kg·ng·h/mL/mg

Q: And the AUClast ([1]; po, 4 mg/kg)?
A: 104381 ng·h/mL

Q: What about the Cmax ([1]; po, 4 mg/kg) of the same compound?
A: 20467 ng/mL

Q: What about the “F, bioavailability (BA) in dogs” value ([1]; po, 4 mg/kg) of the same compound?
A: 54.4%

Q: What about the “MRT0-∞” value ([1]; po, 4 mg/kg) of the same compound?
A: 5.38 h

Q: What about the T1/2 ([1]; po, 4 mg/kg) of the same compound?
A: 4.13 h

Q: What about the Tmax ([1]; po, 4 mg/kg) of the same compound?
A: 2.67 h

Q: And the “Final pH” value ([4]; pH tested after 24 hours)?
A: 6.44

Q: And the “Appearance after stirring for 24 hours” value ([4]; saturated)?
A: Suspension

Q: What about the Thermodynamic solubility [4] of the same compound?
A: 3700 µg/mL

Q: What about the Thermodynamic solubility ([4]; listed as Tromethamine cation) of the same compound?
A: 3700 µg/mL

Q: And the “Increase in oral BA vs free acid in rats” value [2]?
A: 1.6

Q: What about the “AUC0-∞” value ([2]; 4 mg/kg) of the same compound?
A: 21874 ng·h/mL

Q: And the AUCExtr ([2]; 4 mg/kg)?
A: 0.930%

Q: What about the AUCinf/D ([2]; 4 mg/kg) of the same compound?
A: 5469 kg·ng·h/mL/mg

Q: And the AUClast ([2]; 4 mg/kg)?
A: 21665 ng·h/mL

Q: And the Cmax ([2]; 4 mg/kg)?
A: 2787 ng/mL

Q: And the “F, bioavailability (BA) in rats” value ([2]; 4 mg/kg)?
A: 12.5%

Q: And the “MRT0-∞” value ([2]; 4 mg/kg)?
A: 5.38 h

Q: And the Tmax ([2]; 4 mg/kg)?
A: 4.00 h

Q: What about the T1/2 ([2]; 4 mg/kg, pH 6.8) of the same compound?
A: 3.39 h

Q: What about the “Appearance after stirring for 24 hours” value [5] of the same compound?
A: clear solution

Q: And the “Final pH” value [5]?
A: 6.51

Q: What about the “Solubility at different time points, 0.5 h” value ([5]; 0.5 h) of the same compound?
A: 1990 µg/mL

Q: And the “Solubility at different time points, 1 h” value ([5]; 1 h)?
A: 1950 µg/mL

Q: What about the “Solubility at different time points, 2 h” value ([5]; 2 h) of the same compound?
A: 1960 µg/mL

Q: And the “Solubility at different time points, 24 h” value ([5]; 24 h)?
A: 2020 µg/mL

Q: And the “Solubility at different time points, Initial” value ([5]; initial)?
A: 1720 µg/mL
